From PubChem BioAssay AID278 (DTP/NCI, 2004)
Several values for one entry are separate records, joined by “and”; a condition that tells them apart may be missing. Equal entries are not always repeated. Results filed as inconclusive are left out.

Tested on: nude mice, A549 intrarenal xenograft, tumor weight change
Assay: NCI In Vivo Anticancer Drug Screen. Data for tumor model A549 Human Adenocarcinoma of Lung with characteristics of Type II Alveolar Epithelial cells (intrarenal inoculation) in NU/NU BALB/C (nude) mice
Settings: endpoint: mean tumor weight change, higher = larger tumour
Description: The antitumor activity of compounds was measured in mice bearing transplantable tumors. Survival or tumor size were measured and the results are expressed as the measurement made in the treated group (T) divided by the measurement made in the vehicle treated control group (C). The tumor model used in this assay is A549 Human Adenocarcinoma of Lung with characteristics of Type II Alveolar Epithelial cells (intrarenal inoculation) in NU/NU BALB/C (nude) mice

[1] = dose: 50.0 mg/kg/injection, schedule: Q04DX003 (ip), vehicle: saline with Tween-80
[2] = dose: 100.0 mg/kg/injection, schedule: Q04DX003 (ip), vehicle: saline with Tween-80
[3] = dose: 200.0 mg/kg/injection, schedule: Q04DX003 (ip), vehicle: saline with Tween-80
[4] = dose: 12.5 mg/kg/injection, schedule: Q04DX003 (ip), vehicle: water
[5] = dose: 25.0 mg/kg/injection, schedule: Q04DX003 (ip), vehicle: water
[6] = dose: 50.0 mg/kg/injection, schedule: Q04DX003 (ip), vehicle: water
[7] = dose: 100.0 mg/kg/injection, schedule: Q04DX003 (ip), vehicle: water
[8] = dose: 150.0 mg/kg/injection, schedule: Q04DX003 (ip), vehicle: Klucel (hydroxypropylcellulose) (HPC)
[9] = dose: 150.0 mg/kg/injection, schedule: Q04DX003 (ip), vehicle: saline with Tween-80
[10] = dose: 300.0 mg/kg/injection, schedule: Q04DX003 (ip), vehicle: saline with Tween-80

## CC(=O)C[n+]1ccc(C)cc1Sc1ccccc1C
[1]
  T/C: 112 % of control
[2]
  T/C: 44 % of control

## COC(=O)C1(F)C(=O)NC(=O)NC1OC (stereo not drawn)
dose: 400.0 mg/kg/injection, schedule: Q04DX003 (ip), vehicle: Klucel (hydroxypropylcellulose) (HPC)
  T/C: 115 % of control
dose: 800.0 mg/kg/injection, schedule: Q04DX003 (ip), vehicle: Klucel (hydroxypropylcellulose) (HPC)
  T/C: 116 % of control
dose: 1600.0 mg/kg/injection, schedule: Q04DX003 (ip), vehicle: Klucel (hydroxypropylcellulose) (HPC)
  T/C: 94 % of control

## Cn1c2ccccc2c2ccc3c(c21)C(=O)C=CC3=O
dose: 25.0 mg/kg/injection, schedule: Q04DX003 (ip), vehicle: saline with Tween-80
  T/C: 61 % of control
[1]
  T/C: 26 % of control
[2]
  T/C: 38 % of control
[3]
  T/C: 35 % of control

## COc1ccc2c(c1)-c1nn(CCCN(C)C)c3ccc([N+](=O)[O-])c(c13)N2
[4]
  T/C: 61 % of control
[5]
  T/C: 81 % of control
[6]
  T/C: 14 % of control
[7]
  T/C: 27 % of control

## Cc1c(O)/c(=C\O)c2nc3c(=O)ccc(C(=O)NCCN(C)C)c3[nH]c2c1=O
[6]
  T/C: 120 % of control
[7]
  T/C: 48 % of control
dose: 120.0 mg/kg/injection, schedule: Q04DX003 (ip), vehicle: water
  T/C: 52 % of control and 75 % of control

## O=S(=O)(CCCCl)SCCCCl
dose: 40.0 mg/kg/injection, schedule: Q04DX003 (ip), vehicle: suspension in saline
  T/C: 81 % of control
dose: 80.0 mg/kg/injection, schedule: Q04DX003 (ip), vehicle: suspension in saline
  T/C: 86 % of control
dose: 160.0 mg/kg/injection, schedule: Q04DX003 (ip), vehicle: suspension in saline
  T/C: 105 % of control
dose: 320.0 mg/kg/injection, schedule: Q04DX003 (ip), vehicle: suspension in saline
  T/C: 112 % of control

## CNC(=O)OCc1nc(SC)n(C)c1COC(=O)NC
dose: 12.5 mg/kg/injection, schedule: Q04DX003 (ip), vehicle: saline
  T/C: 156 % of control
dose: 25.0 mg/kg/injection, schedule: Q04DX003 (ip), vehicle: saline
  T/C: 28 % of control

## O=C1CNC(=O)N1CN1CCOCC1
[8]
  T/C: 198 % of control
dose: 300.0 mg/kg/injection, schedule: Q04DX003 (ip), vehicle: Klucel (hydroxypropylcellulose) (HPC)
  T/C: 69 % of control

## O=NNc1ccc(Cl)cn1
dose: 5.0 mg/kg/injection, schedule: Q04DX003 (ip), vehicle: water
  T/C: 63 % of control
dose: 6.25 mg/kg/injection, schedule: Q04DX003 (ip), vehicle: water
  T/C: 113 % of control
dose: 10.0 mg/kg/injection, schedule: Q04DX003 (ip), vehicle: water
  T/C: 68 % of control
[4]
  T/C: 62 % of control
dose: 20.0 mg/kg/injection, schedule: Q04DX003 (ip), vehicle: water
  T/C: 100 % of control
[5]
  T/C: 61 % of control
dose: 40.0 mg/kg/injection, schedule: Q04DX003 (ip), vehicle: water
  T/C: 57 % of control
[6]
  T/C: 26 % of control

## c1ccc2c3c(c4c(c2c1)CN(C1CCCCC1)CO4)OCN(C1CCCCC1)C3
dose: 37.5 mg/kg/injection, schedule: Q04DX003 (ip), vehicle: distilled water + Tween-80
  T/C: 65 % of control

## O=C(O)[C@H](Cc1ccccc1)N1C(=O)c2ccccc2C1=O
dose: 150.0 mg/kg/injection, schedule: Q04DX003 (ip), vehicle: DMSO
  T/C: 94 % of control
dose: 300.0 mg/kg/injection, schedule: Q04DX003 (ip), vehicle: DMSO
  T/C: 77 % of control
dose: 600.0 mg/kg/injection, schedule: Q04DX003 (ip), vehicle: DMSO
  T/C: 47 % of control

## Nc1ccn([C@@H]2C=C(CO)[C@@H](O)[C@H]2O)c(=O)n1
dose: 0.67 mg/kg/injection, schedule: Q01DX009 (ip), vehicle: saline
  T/C: 58 % of control
dose: 1.0 mg/kg/injection, schedule: Q01DX009 (ip), vehicle: saline
  T/C: 20 % of control and 40 % of control
dose: 1.5 mg/kg/injection, schedule: Q01DX009 (ip), vehicle: saline
  T/C: -59 % of control
dose: 2.0 mg/kg/injection, schedule: Q01DX009 (ip), vehicle: saline
  T/C: 8 % of control

## S=C1CCCCN1
dose: 75.0 mg/kg/injection, schedule: Q04DX003 (ip), vehicle: distilled water + Tween-80 + alcohol
  T/C: 86 % of control
dose: 150.0 mg/kg/injection, schedule: Q04DX003 (ip), vehicle: distilled water + Tween-80 + alcohol
  T/C: 69 % of control

## CC[C@@]1(O)C(=O)OCc2c1cc1n(c2=O)Cc2cc3ccccc3nc2-1
dose: 2.0 mg/kg/injection, schedule: Q04DX003 (ip), vehicle: saline with Tween-80
  T/C: 31 % of control
dose: 4.0 mg/kg/injection, schedule: Q04DX003 (ip), vehicle: saline with Tween-80
  T/C: 29 % of control
dose: 6.0 mg/kg/injection, schedule: Q04DX003 (ip), vehicle: saline with Tween-80
  T/C: -21 % of control
dose: 8.0 mg/kg/injection, schedule: Q04DX003 (ip), vehicle: saline with Tween-80
  T/C: 17 % of control
dose: 10.0 mg/kg/injection, schedule: Q04DX003 (ip), vehicle: saline with Tween-80
  T/C: -80 % of control
dose: 16.0 mg/kg/injection, schedule: Q04DX003 (ip), vehicle: saline with Tween-80
  T/C: 12 % of control

## S=C(NCNC(=S)c1ccncc1)c1ccncc1
[9]
  T/C: 420 % of control
[10]
  T/C: 260 % of control
dose: 600.0 mg/kg/injection, schedule: Q04DX003 (ip), vehicle: saline with Tween-80
  T/C: 317 % of control

## CN=C(N)N/N=C(\C)c1ccc2sc3ccc(/C(C)=N/NC(N)=NC)cc3c2c1
dose: 75.0 mg/kg/injection, schedule: Q04DX003 (ip), vehicle: saline with Tween-80
  T/C: 118 % of control
[9]
  T/C: 95 % of control
[10]
  T/C: 83 % of control

## COc1cccc2c1C(=O)c1c(O)c3c(c(O)c1C2=O)C[C@](O)(C(=O)CO)CC3OC1CC(N)C(OC2CCCCO2)C(C)O1 (stereo partly drawn)
dose: 1.88 mg/kg/injection, schedule: Q04DX003 (ip), vehicle: water
  T/C: 35 % of control
dose: 3.75 mg/kg/injection, schedule: Q04DX003 (ip), vehicle: water
  T/C: 74 % of control
dose: 7.5 mg/kg/injection, schedule: Q04DX003 (ip), vehicle: water
  T/C: 28 % of control
dose: 15.0 mg/kg/injection, schedule: Q04DX003 (ip), vehicle: water
  T/C: 4 % of control

## C/C=C/CC(C)C(O)C1C(=O)NC(CC)C(=O)N(C)CC(=O)N(C)C(CC(C)C)C(=O)NC(C(C)C)C(=O)N(C)C(CC(C)C)C(=O)NC(C)C(=O)NC(C)C(=O)N(C)C(CC(C)C)C(=O)N(C)C(CC(C)C)C(=O)N(C)C(C(C)C)C(=O)N1C (stereo not drawn)
dose: 75.0 mg/kg/injection, schedule: Q04DX003 (ip), vehicle: Klucel (hydroxypropylcellulose) (HPC)
  T/C: 158 % of control
[8]
  T/C: 65 % of control

## COc1ccc2oc3c(ccc[n+]3C)c(=O)c2c1
[2]
  T/C: 57 % of control
[3]
  T/C: 38 % of control
dose: 400.0 mg/kg/injection, schedule: Q04DX003 (ip), vehicle: saline with Tween-80
  T/C: 32 % of control

## COc1cc2c(c(OC)c1O)-c1ccc(OC)c(=O)cc1[C@@H](NC(=O)C(F)(F)F)CC2
dose: 5.0 mg/kg/injection, schedule: Q04DX003 (ip), vehicle: Klucel (hydroxypropylcellulose) (HPC)
  T/C: 7 % of control
dose: 7.2 mg/kg/injection, schedule: Q04DX003 (ip), vehicle: Klucel (hydroxypropylcellulose) (HPC)
  T/C: 116 % of control
dose: 10.0 mg/kg/injection, schedule: Q04DX003 (ip), vehicle: Klucel (hydroxypropylcellulose) (HPC)
  T/C: 48 % of control
dose: 12.0 mg/kg/injection, schedule: Q04DX003 (ip), vehicle: Klucel (hydroxypropylcellulose) (HPC)
  T/C: 90 % of control

## CC(C)(C[NH-])C[NH-].[Cl][Pt+2][Cl]
dose: 1.5 mg/kg/injection, schedule: Q04DX003 (ip), vehicle: water
  T/C: 40 % of control
dose: 3.0 mg/kg/injection, schedule: Q04DX003 (ip), vehicle: water
  T/C: 70 % of control
dose: 6.0 mg/kg/injection, schedule: Q04DX003 (ip), vehicle: water
  T/C: 62 % of control
dose: 12.0 mg/kg/injection, schedule: Q04DX003 (ip), vehicle: water
  T/C: 52 % of control

## Cc1cc(Br)c2nsnc2c1[N+](=O)[O-]
[9]
  T/C: 7 % of control and 26 % of control
dose: 1200.0 mg/kg/injection, schedule: Q04DX003 (ip), vehicle: saline with Tween-80
  T/C: 38 % of control
